According to patent US7211587B2, “Quinoline derivatives and quinazoline derivatives having azolyl group” (Kirin Beer Kabushiki Kaisha, priority 2001, dated 2007):

Molecular target: T1, human KDR (Homo sapiens, UniProt P35968)
T1 construct: expressed in transfected cells; host or cells: NIH 3T3 cells (mouse fibroblasts) stably expressing human KDR
Assay: Inhibitory activity against KDR phosphorylation by ELISA (VEGF-stimulated NIH 3T3 cells expressing human KDR)
Type: cell-based
Details: VEGF 100 ng/ml, compound 1 hr, read-out: IC50 (inhibition of KDR phosphorylation)
Method: The harvested cells were inoculated into wells of a collagen-type one-coat 96-well flat-bottom plate, each containing the same medium, in an amount of 1.5×10^4 per well, followed by cultivation at 37° C. overnight. The medium was then replaced by a DMEM medium containing 0.1% fetal calf serum. A solution of a test compound in dimethyl sulfoxide was added to each well, and the cultivation was continued at 37° C. for additional one hr. A human recombinant vascular endothelial growth factor (hereinafter abbreviated to “VEGF”) was added to a final concentration of 100 ng/ml, and the stimulation of cells was carried out at 37° C. for 2 min. The medium was removed, the cells were washed with phosphate buffered saline (pH 7.4), and 50 μl of a solubilization buffer (20 mM HEPES (pH 7.4), 150 mM NaCl, 0.2% Triton X-100, 10% glycerol, 5 mM sodium orthovanadylate, 5 mM disodium ethylenediaminetetraacetate, and 2 mM Na4P2O7) was then added thereto. The mixture was shaken at 4° C. for 2 hr to prepare a cell extract.
Separately, phosphate buffered saline (50 μl, pH 7.4) containing 5 μg/ml of an anti-phospho-tyrosine antibody (PY20; purchased from Transduction Laboratories) was added to a microplate for ELISA (Maxisorp; purchased from NUNC), followed by standing at 4° C. overnight to form a solid phase on the wells. After washing of the plate, 300 μl of a blocking solution was added, followed by standing at room temperature for 2 hr to perform blocking. After washing, the whole quantity of the cell extract was transferred to the wells, and the plate was then allowed to stand at 4° C. overnight. After washing, an anti-KDR antibody (purchased from Santa Cruz) was allowed to react at room temperature for one hr, and, after washing, a peroxidase-labeled anti-rabbit Ig antibody (purchased from Amersham) was allowed to react at room temperature for one hr. After washing, a chromophoric substrate for peroxidase (purchased from Sumitomo Bakelite Co., Ltd.) was added thereto to initiate a reaction. After a suitable level of color development, a reaction termination solution was added to stop the reaction, and the absorbance at 450 nm was measured with a microplate reader. The KDR phosphorylation activity for each well was determined by presuming the absorbance with the addition of VEGF and without the addition of the medicament to be 100% KDR phosphorylation activity and the absorbance without the addition of the medicament and VEGF to be 0% KDR phosphorylation activity.

T1 sequence (P35968 20-1356): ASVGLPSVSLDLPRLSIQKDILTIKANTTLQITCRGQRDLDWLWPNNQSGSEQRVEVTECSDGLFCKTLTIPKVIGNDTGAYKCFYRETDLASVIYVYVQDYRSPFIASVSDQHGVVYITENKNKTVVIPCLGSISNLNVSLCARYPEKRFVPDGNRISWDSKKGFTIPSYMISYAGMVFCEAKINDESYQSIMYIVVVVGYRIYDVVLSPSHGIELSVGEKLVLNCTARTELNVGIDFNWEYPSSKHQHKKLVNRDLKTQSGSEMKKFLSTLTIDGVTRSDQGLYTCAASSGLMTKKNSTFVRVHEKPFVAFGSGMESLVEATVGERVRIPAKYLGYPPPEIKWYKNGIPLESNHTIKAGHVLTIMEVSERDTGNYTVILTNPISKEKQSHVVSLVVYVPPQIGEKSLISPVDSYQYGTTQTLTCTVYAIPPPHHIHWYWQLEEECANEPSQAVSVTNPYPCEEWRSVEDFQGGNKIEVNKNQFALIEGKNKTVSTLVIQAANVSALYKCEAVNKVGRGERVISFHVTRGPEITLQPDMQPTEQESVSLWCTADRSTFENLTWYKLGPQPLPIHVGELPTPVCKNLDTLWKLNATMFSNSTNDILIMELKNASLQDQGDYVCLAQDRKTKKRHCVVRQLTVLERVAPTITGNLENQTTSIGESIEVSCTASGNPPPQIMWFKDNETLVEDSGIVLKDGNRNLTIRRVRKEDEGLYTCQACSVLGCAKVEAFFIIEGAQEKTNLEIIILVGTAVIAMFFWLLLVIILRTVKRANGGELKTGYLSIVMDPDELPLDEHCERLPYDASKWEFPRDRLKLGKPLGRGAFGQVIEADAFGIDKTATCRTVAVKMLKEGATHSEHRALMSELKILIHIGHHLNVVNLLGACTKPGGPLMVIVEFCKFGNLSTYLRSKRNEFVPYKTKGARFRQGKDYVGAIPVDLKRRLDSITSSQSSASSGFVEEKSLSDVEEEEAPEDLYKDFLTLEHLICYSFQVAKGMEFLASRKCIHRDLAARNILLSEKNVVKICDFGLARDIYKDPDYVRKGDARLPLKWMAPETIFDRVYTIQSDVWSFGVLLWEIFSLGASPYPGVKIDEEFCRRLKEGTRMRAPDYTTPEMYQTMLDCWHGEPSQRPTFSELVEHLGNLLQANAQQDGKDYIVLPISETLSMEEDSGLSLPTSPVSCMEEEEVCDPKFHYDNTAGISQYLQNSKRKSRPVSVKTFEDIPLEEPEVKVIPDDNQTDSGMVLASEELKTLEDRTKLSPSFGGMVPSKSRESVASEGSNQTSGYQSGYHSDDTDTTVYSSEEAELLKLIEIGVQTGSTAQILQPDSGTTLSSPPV

| Compound | IC50 |
| --- | --- |
| COc1cc2ncnc(Oc3ccc(NC(=O)Nc4nc(C)cs4)cc3Cl)c2cc1OC [Ex. 48, N-{3-Chloro-4-[(6,7-dimethoxy-4-quinazolinyl)oxy]phenyl}-N′-(4-methyl-1,3-thiazol-2-yl)urea] | 4.4 nM |
| COc1cc2ncnc(Oc3ccc(NC(=O)Nc4nc(C)c(C)s4)cc3Cl)c2cc1OC [Ex. 49, N-{3-Chloro-4-[(6,7-dimethoxy-4-quinazolinyl)oxy]phenyl}-N′-(4,5-dimethyl-1,3-thiazol-2-yl)urea] | 3.1 nM |
| COc1cc2ncnc(Oc3ccc(NC(=O)Nc4cc(C)ns4)cc3)c2cc1OC [Ex. 16, N-{4-[(6,7-Dimethoxy-4-quinazolinyl)oxy]-phenyl}-N′-(3-methyl-5-isothiazolyl)urea] | 54.9 nM |
| CCc1nnc(NC(=O)Nc2ccc(Oc3ccnc4cc(OC)c(OC)cc34)c(F)c2)s1 [Ex. 64, N-{4-[(6,7-Dimethoxy-4-quinolyl)oxy]-3-fluorophenyl}-N′-(5-ethyl-1,3,4-thiadiazol-2-yl)urea] | 1.5 nM |
| COc1cc2nccc(Oc3ccc(NC(=O)Nc4nc(C(C)(C)C)cs4)c(Cl)c3)c2cc1OC [Ex. 33, N-[4-(Tert-butyl)-1,3-thiazol-2-yl]-N′-{2-chloro-4-[(6,7-dimethoxy-4-quinolyl)oxy]phenyl}urea] | 21.1 nM |
| COc1cc2nccc(Oc3ccc(NC(=O)Nc4ccn[nH]4)c(F)c3)c2cc1OC [Ex. 20, N-{4-[(6,7-Dimethoxy-4-quinolyl)oxy]-2-fluorophenyl}-N′-(1H-5-pyrazolyl)urea] | 4.2 nM |
| COc1cc2ncnc(Oc3ccc(NC(=O)Nc4cc(C)no4)cc3)c2cc1OC [Ex. 11, N-{4-[(6,7-Dimethoxy-4-quinazolinyl)oxy]-phenyl}-N′-(3-methyl-5-isoxazolyl)urea] | 9.3 nM |
| COc1cc2nccc(Oc3ccc(NC(=O)Nc4ccn[nH]4)cc3Cl)c2cc1OC [Ex. 19, N-{3-Chloro-4-[(6,7-dimethoxy-4-quinolyl)oxy]phenyl}-N′-(1H-5-pyrazolyl)urea] | 17.5 nM |
| COc1cc2ncnc(Oc3ccc(NC(=O)Nc4nc(C)c(C)s4)cc3)c2cc1OC [Ex. 45, N-{4-[(6,7-Dimethoxy-4-quinazolinyl)oxy]-phenyl}-N′-(4,5-dimethyl-1,3-thiazol-2-yl)urea] | < 1 nM |
| COc1cc2ncnc(Oc3ccc(NC(=O)Nc4cc(C)on4)c(Cl)c3)c2cc1OC [Ex. 12, N-{2-Chloro-4-[(6,7-dimethoxy-4-quinazolinyl)oxy]phenyl}-N′-(5-methyl-3-isoxazolyl)urea] | < 1 nM |

The next lines start with the values.

| IC50 | Compound |
| --- | --- |
| 18 nM | COc1cc2nccc(Oc3ccc(NC(=O)Nc4nnc(C5CC5)s4)cc3Cl)c2cc1OC [Ex. 68, N-{3-Chloro-4-[(6,7-dimethoxy-4-quinolyl)oxy]phenyl}-N′-(5-cyclopropyl-1,3,4-thiadiazol-2-yl)urea] |
| 4.4 nM | COc1cc2ncnc(Oc3ccc(NC(=O)Nc4cc(C)on4)cc3Cl)c2cc1OC [Ex. 14, N-{3-Chloro-4-[(6,7-dimethoxy-4-quinazolinyl)oxy]phenyl}-N′-(5-methyl-3-isoxazolyl)urea] |
| < 1 nM | CCc1nnc(NC(=O)Nc2ccc(Oc3ccnc4cc(OC)c(OC)cc34)cc2Cl)s1 [Ex. 65, N-{2-Chloro-4-[(6,7-dimethoxy-4-quinolyl)oxy]phenyl}-N′-(5-ethyl-1,3,4-thiadiazol-2-yl)urea] |
| 28.6 nM | COc1cc2nccc(Oc3ccc(NC(=O)Nc4nc(C(C)(C)C)cs4)c(F)c3)c2cc1OC [Ex. 30, N-[4-(Tert-butyl)-1,3-thiazol-2-yl]-N′-{4-[(6,7-dimethoxy-4-quinolyl)oxy]-2-fluorophenyl}urea] |
| 2.8 nM | COc1cc2ncnc(Oc3ccc(NC(=O)Nc4ncc(C)s4)cc3Cl)c2cc1OC [Ex. 47, N-{3-Chloro-4-[(6,7-dimethoxy-4-quinazolinyl)oxy]phenyl}-N′-(5-methyl-1,3-thiazol-2-yl)urea] |
| 2.2 nM | COc1cc2ncnc(Oc3ccc(NC(=O)Nc4cc(C)no4)c(Cl)c3)c2cc1OC [Ex. 13, N-{2-Chloro-4-[(6,7-dimethoxy-4-quinazolinyl)oxy]phenyl}-N′-(3-methyl-5-isoxazolyl)urea] |
